# From ChEMBL document CHEMBL6178015, “Discovery of a Novel Serine-Targeting Covalent Inhibitor against HCES2A for Treating Drug-induced Diarrhea and Ulcerative Colitis” (J Med Chem, 2025)
# Active and inactive are the calls of the source. The rule behind the calls is not given here.
# How the values were obtained:
# [1] = Inhibition of human CES2A using fluorescein diacetate as substrate preincubated for 3 mins followed by substrate addition and measured after 30 mins by fluorescence microplate reader
# Mus musculus [2] = test: Antiinflammatory activity against DSS-induced ulcerative colitis mouse model assessed as epithelial damage at 700 mg/kg,IG administered once daily 7 days by AB-PAS staining based analysis; format: functional, organism-based; settings: time 7.0 day
# Mus musculus [3] = test: Antiinflammatory activity against DSS-induced ulcerative colitis mouse model assessed as restoration of colon histology at 700 mg/kg,IG administered once daily 7 days by AB-PAS staining based analysis; format: functional, organism-based; settings: time 7.0 day
# Mus musculus [4] = test: Antiinflammatory activity against DSS-induced ulcerative colitis mouse model assessed as goblet cell loss at 700 mg/kg,IG administered once daily 7 days by AB-PAS staining based analysis; format: functional, organism-based; settings: time 7.0 day
# Homo sapiens = species: Homo sapiens; test: Selectivity index, ratio of IC50 for inhibition of human CES1A to IC50 for inhibition of human CES2A
# [5] = Inhibition of human CES1A using NLMe as substrate preincubated for 3 mins followed by substrate addition and measured after 20 mins by chemiluminescence analysis
Structure (SMILES),IC50 [1],also measured
CCCCCCC(=O)c1cccc2oc(-c3cc(C)ccc3NC(=O)OCC3c4ccccc4-c4ccccc43)cc12,2.14 µM,
CCCCCCC(=O)c1cccc2oc(-c3cc(OC)ccc3N)cc12,1.97 µM,
CCCCCCC(=O)c1cccc2oc(-c3ccccc3NC(=O)OCCCC)cc12,1.26 µM,
CCCCCCC(=O)c1c(C)ccc2oc(-c3cc(OC)ccc3O)cc12,0.00155 µM,
O=C(O)c1cc(/N=N/c2ccc(S(=O)(=O)Nc3ccccn3)cc2)ccc1O,,Activity (Mus musculus [2]): inactive; Activity (Mus musculus [3]): Active; Activity (Mus musculus [4]): inactive
CCCCCCCCC(=O)c1cccc2oc(-c3cc(C)ccc3N)cc12,0.736 µM,
CCCCCCOC(=O)Nc1ccccc1-c1cc2c(C(=O)CCCCCC)cccc2o1,> 10 µM,
CCCCCCC(=O)c1cccc2oc(-c3ccccc3NC(=O)OCC(CC)CCCC)cc12 (stereo unspecified),1.34 µM,
CCCCCCC(=O)c1cccc2oc(-c3cc(OC)ccc3OC(=O)N3CCCC3)cc12,0.000249 µM,Ratio IC50 (Homo sapiens): 22.7; IC50 [5]: 0.00565 µM
CCCCCCC(=O)c1cccc2oc(-c3cc(C)ccc3N)cc12,0.613 µM,

# Continued, in another order:
IC50 [1],Structure (SMILES),also measured
0.983 µM,CCCC(=O)c1cccc2oc(-c3cc(C)ccc3NC(=O)OCCCl)cc12,
4.26 µM,CCCCCCC(=O)c1cccc2oc(-c3cc(C)ccc3NC(=O)OCC(CC)CCCC)cc12 (stereo unspecified),
3.11 µM,CCCC(=O)c1cccc2oc(-c3cc(C)ccc3N)cc12,
0.0566 µM,CCCCCCC(=O)c1cccc2oc(-c3ccccc3NC(=O)OCCCl)cc12,Ratio IC50 (Homo sapiens): > 176; IC50 [5]: > 10 µM
0.362 µM,CCCCCCOC(=O)Nc1ccc(C)cc1-c1cc2c(C(=O)CCCCCC)cccc2o1,
